The source of these data is patent US6900200B2, “Tricyclic hydroxy carboxamides and derivatives thereof tocolytic oxytocin receptor antagonists” (Wyeth, priority 2001, dated 2005).

For the first assay, the target named is T1, human vasopressin V1a receptor subtype (Homo sapiens, UniProt P37288).
T1 construct: host or cells: CHO cells; pZeoSV vector for the Thibonnier line
T1 sequence (P37288 whole entry): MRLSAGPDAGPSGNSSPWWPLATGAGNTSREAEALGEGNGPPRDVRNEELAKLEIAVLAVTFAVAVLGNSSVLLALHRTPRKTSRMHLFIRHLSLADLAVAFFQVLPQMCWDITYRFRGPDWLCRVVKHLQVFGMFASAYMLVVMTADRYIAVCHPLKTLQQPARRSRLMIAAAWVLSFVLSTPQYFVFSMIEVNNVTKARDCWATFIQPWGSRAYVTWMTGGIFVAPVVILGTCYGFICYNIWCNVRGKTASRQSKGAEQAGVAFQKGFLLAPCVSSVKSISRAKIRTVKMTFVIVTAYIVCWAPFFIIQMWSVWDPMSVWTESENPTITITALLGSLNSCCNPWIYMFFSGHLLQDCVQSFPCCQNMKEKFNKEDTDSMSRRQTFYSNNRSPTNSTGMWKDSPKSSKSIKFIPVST
Put plainly: Vasopressin binding in CHO cell membranes expressing human vasopressin V1a subtype receptors ([3H]Manning ligand radioligand binding). The note with it: @ 100 nM. An excerpt: Vasopressin Binding in Chinese Hamster Ovary Cell Membranes Expressing Human Vasopressin V1a Subtype Receptors
Chinese hamster ovary cells (CHO cells) stably transfected with the human vasopressin V1a subtype receptors were either obtained from BioSignal Inc., 1744 rue Williams, Montreal, Quebec, Canada or obtained from M. Thibonnier, Case Western Reserve University School of Medicine, Cleveland, Ohio.
A. Passaging and Amplification of Cells
CHO cells transfected with the human vasopressin V1a subtype receptors obtained from M. Thibonnier (pZeoSV vector) are allowed to grow to confluency (approx. >90%) in T-150 flasks under sterile conditions, in a cell culture medium of F-12 Nutrient Mixture (HAM) with L-glutamine (Gibco Cat. #11765-054) containing 15 mM HEPES (Gibco Cat. #15630-080), 1% antibiotic/antimycotic (add 5 mL 100×, Gibco Cat. #15240-062 per 500 mL F-12), 250 μg/mL Zeocin (add 1.25 mL of 100 mg/mL Invitrogen R-250-01 per 500 mL F-12) and 10% Fetal Bovine Serum (Qualified, heat inactivated, Gibco Cat. #16140-063). The medium is removed by aspiration and the cells are washed with 10 mL of Hank's Balanced Salt solution (Gibco Cat. #14175-095). The salt solution is removed by aspiration and the cells are trypsinized with 5 mL of trypsin-EDTA (0.05% trypsin, 0.53 mM EDTA-4Na, Gibco Cat. #25300-070) for 1 min. The trypsin is removed by aspiration and the cells dislodged by tapping. Cell Culture medium (e.g. 30 mL for 1:30 split) is immediately added and mixed well to inactivate trypsin. 1 mL of detached cells is added to new culture flasks containing fresh cell culture medium (e.g., into 25 mL per T-150 flask), and mixed gently. The cells are incubated at 37° C. in 5% CO2. The medium is changed at 3 to 4 days interval (or as appropriate). The cells grow to confluency (approx. >75%-95%) within 7-8 days. All steps are done under sterile conditions.
The cells are washed twice gently with Hank's Balanced Salt solution (e.g,. use 10 mL per T-150 flask). The excess is removed and the cells are bathed for 15-30 min. in an enzyme-free Cell Dissociation Buffer (e.g. use 8 mL Hank's Based, Gibco Cat. #13150-016 per T-150 flask) until the cells are loosened. The contents are transferred to centrifuge tubes (50 mL) kept in an ice bath. All subsequent steps are done at 4° C. The tubes are centrifuged at 300×g for 15 min (1380 rpm on SORVAL, Model RT6000D, using the rotor for 50 mL tubes). The supernatant is discarded and the cells suspended in homogenizing buffer(10 mM Tris-HCl containing 0.25 M sucrose and 1 mM EDTA, pH 7.4) ensuring that the volume of the buffer is about ten times the volume of the cell pellet. The cells are pooled into a centrifuge tube (50 mL) and homogenized with Polytron at setting 6 for 10 sec. The homogenate is transferred into a Potter-Elvjehm homogenizer and homogenized with 3 strokes. The homogenate is centrifuged at 1500×g for 10 min at 4° C. (3100 rpm using SORVAL, model RT6000D, using the rotor for 50 mL tubes). The pellet is discarded. The supernatant is centrifuged at 100,000×g for 60 min. at 4° C. (Beckman L8-80M ultracentrifuge; spin at 37,500 rpm with rotor type 70 Ti for 50 mL tubes; 38,000 rpm with type 80Ti for 15 mL tubes; or 35,800 rpm with rotor type 45Ti). The supernantant is discarded and the pellet suspended in 3 to 4 mL of Tris buffer (50 mM TRIS—HCl, pH 7.4). The protein content is estimated by the Bradford or Lowry method. The volume of the membrane suspension is adjusted with the membrane buffer (50 mM Tris-HCl containing 0.1% BSA and 0.1 mM PMSF) to give 3.0 mg/mL (or as appropriate) of protein. The membranes are aliquoted and stored at −70° C.
C. Radioligand Binding Assay […]
For orientation: inhibition means the percentage by which the read-out fell short of the control. On to `COc1ccccc1-c1ccc(C(=O)N2Cc3ccc(C(=O)N(C)C[C@@H](O)CO)n3Cc3ccccc32)cc1C` (single isomer, unassigned) [Example 16], for which testing at 0.1 µM gave an inhibition of 68%.

The compound `COc1cccc(-c2ccc(C(=O)N3Cc4ccc(C(=O)N5CCN(CCO)CC5)n4Cc4ccccc43)cc2C)c1` [Example 44, [4-(2-Hydroxyethyl)-1-piperazinyl]{10-[(3′-methoxy-2-methyl[1,1′-biphenyl]-4yl)carbonyl]-10,11-dihydro-5H-pyrrolo[2,1-c][1,4]benzodiazepin-3-yl}methanone] yielded an inhibition at 0.1 µM of 17%.

`Cc1cc(C(=O)N2Cc3ccc(C(=O)NC(CO)(CO)CO)n3Cc3ccccc32)ccc1-c1ccccc1C(F)(F)F` [Example 3, 10-[(2-Methyl-2′-trifluoromethyl-[1,1′-biphenyl]-4-yl)carbonyl]-10,11-dihydro-5H-pyrrolo[2,1-c][1,4]benzodiazepine-3-carboxylic acid (2-hydroxy-1,1-bis-hydroxymethyl-ethyl)-amide] gave an inhibition at 0.1 µM of 7%.

`COc1ccccc1-c1ccc(C(=O)N2Cc3ccc(C(=O)N4CCN(CCO)CC4)n3Cc3ccccc32)cc1C` [Example 40, [4-(2-Hydroxyethyl)-1-piperazinyl]{10-[(2′-methoxy-2-methyl[1,1′-biphenyl]-4yl)carbonyl]-10,11-dihydro-5H-pyrrolo[2,1-c][1,4]benzodiazepin-3-yl}methanone] showed an inhibition at 0.1 µM of 13%.

`Cc1cc(C(=O)N2Cc3ccc(C(=O)N4CCN(CCO)CC4)n3Cc3ccccc32)ccc1-c1ccccc1C(F)(F)F` [Example 48, [4-(2-Hydroxyethyl)-1-piperazinyl](10-{[2-methyl-2′-(trifluoromethyl)[1,1′-biphenyl]-4-yl)carbonyl}-10,11-dihydro-5H-pyrrolo[2,1-c][1,4]benzodiazepin-3-yl)methanone] registered an inhibition at 0.1 µM of 7%.

Compound `COc1cc(C(=O)N2Cc3ccc(C(=O)N4CCN(CCO)CC4)n3Cc3ccccc32)ccc1-c1ccccc1C` [Example 42, [4-(2-Hydroxyethyl)-1-piperazinyl]{10-[(2-methoxy-2′-methyl[1,1′-biphenyl]-4yl)carbonyl]-10,11-dihydro-5H-pyrrolo[2,1-c][1,4]benzodiazepin-3-yl}methanone] returned an inhibition at 0.1 µM of 49%.

Still in this assay, the particulars now being: value printed in parentheses.
A word on the IC50: it is the concentration that gives 50% inhibition. `Cc1ccc(-c2ccc(C(=O)N3Cc4ccc(C(=O)N(C)CC(O)CO)n4Cc4ccccc43)cc2)c2ccccc12` (centres unmarked) [Example 26, 10-{[4-(4-Methyl-naphthalen-1-yl)phenyl]carbonyl}-10,11-dihydro-5H-pyrrolo[2,1-c][1,4]benzodiazepine-3-carboxylic acid (2,3-dihydroxy-propyl)-N-methylamide]: the IC50 was 140 nM.

As for `COc1ccccc1-c1ccc(C(=O)N2Cc3ccc(C(=O)N(C)C[C@H](O)[C@@H](O)[C@H](O)[C@H](O)CO)n3Cc3ccccc32)cc1C` [Example 17, 10-[(2′-Methoxy-2-methyl-[1,1′-biphenyl]-4-yl)carbonyl]-10,11-dihydro-5H-pyrrolo[2,1-c][1,4]benzodiazepine-3-carboxylic acid methyl-[(2S,3R,4R, 5R)-2,3,4,5,6-pentahydroxy-hexyl)-amide], the IC50 came out at 227 nM.

For `Cc1cc(C(=O)N2Cc3ccc(C(=O)N(C)C[C@H](O)[C@@H](O)[C@H](O)[C@H](O)CO)n3Cc3ccccc32)ccc1-c1ccccc1C(F)(F)F` [Example 4, 10-[(2-Methyl-2′-trifluoromethyl-[1,1′-biphenyl]-4-yl)carbonyl]-10,11-dihydro-5H-pyrrolo[2,1-c][1,4]benzodiazepine-3-carboxylic acid methyl-((2S,3R,4R,5R)-2,3,4,5,6-pentahydroxy-hexyl)-amide], the IC50 stood at 1430 nM.

“{(2S)-1-[(10-{[2-Methoxy-2(trifluoromethyl)[1,1′-biphenyl]-4-yl]carbonyl}-10,11-dihydro-5H-pyrrolo[2,1-c][1,4]benzodiazepin-3-yl)carbonyl]pyrrolidin-2-yl}-methanol [Example 36]”: the IC50 turned out to be 1510 nM.

As to `COc1cc(-c2ccccc2C)c(Cl)cc1C(=O)N1Cc2ccc(C(=O)N3CCN(CCO)CC3)n2Cc2ccccc21` [Example 39, {10-[(6-Chloro-3-methoxy-2′-methyl[1,1′-biphenyl]-4-yl)carbonyl]-10,11-dihydro-5H-pyrrolo[2,1-c][1,4]benzodiazepin-3-yl}[4-(2-hydroxyethyl)-1-piperazinyl]methanone], the IC50 stood at 759 nM.

For the compound `COCC(CN(C)C(=O)c1ccc2n1Cc1ccccc1N(C(=O)c1ccc(-c3ccccc3C(F)(F)F)c(C)c1)C2)OC` (centres unmarked) [Example 10, N-(2,3-Dimethoxypropyl)-N-methyl-10-{[2-methyl-2′-trifluoromethyl-[1,1′-biphenyl]-4-yl]carbonyl}-10,11-dihydro-5H-pyrrolo[2,1-c][1,4]benzodiazepine-3-carboxamide], the IC50 is 1800 nM.

With `COC[C@H](O)CN1CCN(C(=O)c2ccc3n2Cc2ccccc2N(C(=O)c2ccc(-c4ccccc4C(F)(F)F)c(C)c2)C3)CC1` [Example 8, (2R)-1-Methoxy-3-{4-[(10-{[2-methyl-2′-trifluoromethyl-[1,1′-biphenyl]-4-yl]carbonyl}-10,11-dihydro-5H-pyrrolo[2,1-c][1,4]benzodiazepin-3-yl)carbonyl]piperazin-1-yl}propan-2-ol], the concentration for half-maximal inhibition (IC50) was 1970 nM.

As to `CC(=O)OCC(CN(C)C(=O)c1ccc2n1Cc1ccccc1N(C(=O)c1ccc(-c3ccccc3C(F)(F)F)c(C)c1)C2)OC(C)=O` (centres unmarked) [Example 13, 2-(Acetyloxy)-1-({methyl[(10-{[2-methyl-2′-trifluoromethyl-[1,1′-biphenyl]-4-yl]carbonyl}-10,11-dihydro-5H-pyrrolo[2,1-c][1,4]benzodiazepin-3-yl)carbonyl]amino}methyl)ethyl acetate], the IC50 turned out to be 1200 nM.

In the case of `Cc1cc(C(=O)N2Cc3ccc(C(=O)N4CCN(C[C@H](O)CO)CC4)n3Cc3ccccc32)ccc1-c1ccccc1C(F)(F)F` [Example 5, (2S)-3-{4-[(10-{[2-Methyl-2′-trifluoromethyl-[1,1′-biphenyl]-4-yl]carbonyl}-10,11-dihydro-5H-pyrrolo[2,1-c][1,4]benzodiazepin-3-yl)carbonyl]piperazin-1-yl}propane-1,2-diol], the IC50 worked out at 2720 nM.

Take `Cc1cc(C(=O)N2Cc3ccc(C(=O)N4CCN(C[C@@H](O)CO)CC4)n3Cc3ccccc32)ccc1-c1ccccc1C(F)(F)F` [Example 6, (2R)-3-{4-[(10-{[2-Methyl-2′-trifluoromethyl-[1,1′-biphenyl]-4-yl]carbonyl}-10,11-dihydro-5H-pyrrolo[2,1-c][1,4]benzodiazepin-3-yl)carbonyl]piperazin-1-yl}propane-1,2-diol]: the IC50 came to 2410 nM.

In the case of `COc1cc(-c2ccccc2C(F)(F)F)c(Cl)cc1C(=O)N1Cc2ccc(C(=O)N(C)C[C@H](O)[C@@H](O)[C@H](O)[C@H](O)CO)n2Cc2ccccc21` [Example 20, 10-{[6-Chloro-3-methoxy-2′-trifluoromethyl-[1,1′-biphenyl]-4-yl]carbonyl}-N-methyl-N-[(2S,3R,4R,5R)-2,3,4,5,6-pentahydroxyhexyl]-10,11-dihydro-5H-pyrrolo[2,1-c][1,4]benzodiazepine-3-carboxamide], the IC50 was found to be 3100 nM.
